Experimental data: PubChem BioAssay AID192 (DTP/NCI, 2004)
Several values for one entry are separate records, joined by “and”; a condition that tells them apart may be missing. Equal values may be shown once. Inconclusive results and toxic doses are left out. The calls were made as follows: active = survival T/C of 150% or more; inactive = T/C below 125% in these data.

Test system: BDF1 mice, B16 melanoma ip, median survival T/C
Test: NCI In Vivo Anticancer Drug Screen. Data for tumor model B16 Melanoma (intraperitoneal) in B6D2F1 (BDF1) mice
Conditions: endpoint: median survival time, higher = longer survival
How it was run: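 Mice with transplantable tumors; drug vs vehicle groups; endpoint survival or tumor size; value = T/C.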

[1] = dose: 50.0 mg/kg/injection, schedule: Q01DX009 (ip), vehicle: Klucel (hydroxypropylcellulose) (HPC)
[2] = dose: 100.0 mg/kg/injection, schedule: Q01DX009 (ip), vehicle: Klucel (hydroxypropylcellulose) (HPC)
[3] = dose: 12.5 mg/kg/injection, schedule: Q01DX009 (ip), vehicle: Klucel (hydroxypropylcellulose) (HPC)
[4] = dose: 25.0 mg/kg/injection, schedule: Q01DX009 (ip), vehicle: Klucel (hydroxypropylcellulose) (HPC)
[5] = dose: 25.0 mg/kg/injection, schedule: Q01DX009 (ip), vehicle: saline with Tween-80
[6] = dose: 50.0 mg/kg/injection, schedule: Q01DX009 (ip), vehicle: saline with Tween-80
[7] = dose: 100.0 mg/kg/injection, schedule: Q01DX009 (ip), vehicle: saline with Tween-80
[8] = dose: 200.0 mg/kg/injection, schedule: Q01DX009 (ip), vehicle: Klucel (hydroxypropylcellulose) (HPC)
[9] = dose: 200.0 mg/kg/injection, schedule: Q01DX009 (ip), vehicle: saline with Tween-80
[10] = dose: 400.0 mg/kg/injection, schedule: Q01DX009 (ip), vehicle: Klucel (hydroxypropylcellulose) (HPC)
[11] = dose: 0.78 mg/kg/injection, schedule: Q01DX009 (ip), vehicle: Klucel (hydroxypropylcellulose) (HPC)
[12] = dose: 1.56 mg/kg/injection, schedule: Q01DX009 (ip), vehicle: Klucel (hydroxypropylcellulose) (HPC)
[13] = dose: 16.0 mg/kg/injection, schedule: Q01DX009 (ip), vehicle: saline with Tween-80
[14] = dose: 32.0 mg/kg/injection, schedule: Q01DX009 (ip), vehicle: saline with Tween-80
[15] = dose: 64.0 mg/kg/injection, schedule: Q01DX009 (ip), vehicle: saline with Tween-80
[16] = dose: 128.0 mg/kg/injection, schedule: Q01DX009 (ip), vehicle: saline with Tween-80
[17] = dose: 100.0 mg/kg/injection, schedule: Q04DX003 (ip), vehicle: saline with Tween-80
[18] = dose: 200.0 mg/kg/injection, schedule: Q04DX003 (ip), vehicle: saline with Tween-80
[19] = dose: 12.5 mg/kg/injection, schedule: Q01DX009 (ip), vehicle: saline with Tween-80
[20] = dose: 6.25 mg/kg/injection, schedule: Q01DX009 (ip), vehicle: Klucel (hydroxypropylcellulose) (HPC)

Measured: T/C

Nc1c(Br)cc2c(c1Br)Cc1cc(Cl)ccc1-2
inactive: dose: 6.25 mg/kg/injection, schedule: Q01DX009 (ip), vehicle: other 108 % of control | dose: 12.5 mg/kg/injection, schedule: Q01DX009 (ip), vehicle: other 96 % of control | dose: 25.0 mg/kg/injection, schedule: Q01DX009 (ip), vehicle: other 96 % of control | [1] 94 % of control | dose: 50.0 mg/kg/injection, schedule: Q01DX009 (ip), vehicle: other 89 % of control | [2] 107 % of control | dose: 100.0 mg/kg/injection, schedule: Q04DX003 (ip), vehicle: other 94 % of control | dose: 200.0 mg/kg/injection, schedule: Q04DX003 (ip), vehicle: other 86 % of control

O=C(O)C1CCCCC1C(=O)Nc1cccc(C(F)(F)F)c1 (stereo not given)
inactive: [3] 114 % of control | [4] 119 % of control | [1] 113 % of control

Nc1ccc(N=Nc2ccccc2)c(N)c1
inactive: [5] 106 % of control | [6] 93 % of control and 101 % of control | [2] 101 % of control | [7] 95 % of control and 101 % of control | [8] 99 % of control | [9] 87 % of control and 90 % of control

CCC(CC)(COS(=O)(=O)c1ccc(C)cc1)COS(=O)(=O)c1ccc(C)cc1
inactive: [2] 100 % of control | [8] 93 % of control | [10] 93 % of control

O=C(Nc1ccccc1)OCCOc1ccc(Cl)cc1Cl
inactive: [2] 96 % of control | [8] 114 % of control | [10] 110 % of control

CCCCCCCCC(=O)NCCCOC
inactive: dose: 100.0 mg/kg/injection, schedule: Q04DX003 (ip), vehicle: Klucel (hydroxypropylcellulose) (HPC) 107 % of control | dose: 200.0 mg/kg/injection, schedule: Q04DX003 (ip), vehicle: Klucel (hydroxypropylcellulose) (HPC) 101 % of control | dose: 400.0 mg/kg/injection, schedule: Q04DX003 (ip), vehicle: Klucel (hydroxypropylcellulose) (HPC) 93 % of control

O=C(O)C(O)C(O)C(=O)O.O=C(O)C(O)C(O)C(=O)O.[O]=[V].[O]=[V] (stereo not given)
inactive: dose: 12.5 mg/kg/injection, schedule: Q01DX009 (ip), vehicle: saline 94 % of control | dose: 12.5 mg/kg/injection, schedule: Q04DX003 (ip), vehicle: saline 100 % of control | dose: 25.0 mg/kg/injection, schedule: Q01DX009 (ip), vehicle: saline 87 % of control | dose: 25.0 mg/kg/injection, schedule: Q04DX003 (ip), vehicle: saline 100 % of control | dose: 50.0 mg/kg/injection, schedule: Q04DX003 (ip), vehicle: saline 86 % of control

c1ccc(CC[P+](c2ccccc2)(c2ccccc2)c2ccccc2)cc1
inactive: [11] 92 % of control | [12] 103 % of control | dose: 3.13 mg/kg/injection, schedule: Q01DX009 (ip), vehicle: Klucel (hydroxypropylcellulose) (HPC) 92 % of control

Nc1ccn(C2OC(COP(=O)(O)O)C(O)C2O)c(=O)n1 (stereo not given)
inactive: [13] 105 % of control | [14] 105 % of control | [15] 115 % of control | [16] 122 % of control

CCCCN(c1ccccc1)c1ncnc2c1cnn2C
inactive: [17] 100 % of control | [18] 102 % of control | dose: 400.0 mg/kg/injection, schedule: Q04DX003 (ip), vehicle: saline with Tween-80 100 % of control

OC(CCN1CCCCC1)(c1ccccc1)C1CCCC1 (stereo not given)
inactive: [3] 100 % of control | [4] 94 % of control | [1] 100 % of control

C=C1CCN(c2ccc([N+](=O)[O-])cc2)C1=O
inactive: dose: 4.0 mg/kg/injection, schedule: Q01DX009 (ip), vehicle: saline + alcohol 97 % of control | dose: 8.0 mg/kg/injection, schedule: Q01DX009 (ip), vehicle: saline + alcohol 107 % of control | dose: 16.0 mg/kg/injection, schedule: Q01DX009 (ip), vehicle: saline + alcohol 98 % of control | dose: 32.0 mg/kg/injection, schedule: Q01DX009 (ip), vehicle: saline + alcohol 89 % of control | dose: 64.0 mg/kg/injection, schedule: Q01DX009 (ip), vehicle: saline + alcohol 95 % of control

COc1c2occc2cc2ccc(=O)oc12
inactive: dose: 8.0 mg/kg/injection, schedule: Q01DX009 (ip), vehicle: saline with Tween-80 104 % of control | [13] 115 % of control | [5] 103 % of control | [14] 95 % of control | [15] 114 % of control | [7] 95 % of control | [16] 93 % of control

COC(=O)c1cc(Cl)ccc1OCC(=O)Nc1ccc([N+](=O)[O-])cc1
inactive: [1] 100 % of control | [2] 100 % of control

CCOc1ccccc1NC(=O)Nc1ccccc1
inactive: [2] 102 % of control | [8] 103 % of control | [10] 99 % of control

O=C(NC(Cc1ccccc1)C(=O)O)c1ccccc1 (stereo not given)
inactive: [6] 90 % of control | [7] 96 % of control

O=C(O)c1ccccc1C(=O)Nc1ccc([N+](=O)[O-])cc1Cl
inactive: [1] 93 % of control | [2] 100 % of control | [8] 96 % of control

COC1CCCCC1SCSC1CCCCC1OC (stereo not given)
inactive: [7] 105 % of control | [9] 102 % of control | dose: 400.0 mg/kg/injection, schedule: Q01DX009 (ip), vehicle: saline with Tween-80 105 % of control

CCN(CC)CCCC(C)Nc1c2ccc(Cl)cc2nc2cc(Cl)ccc12 (stereo not given)
inactive: [3] 106 % of control | [4] 106 % of control | [1] 122 % of control

O=[N+]([O-])c1cccc(N=Cc2ccccc2)c1
inactive: dose: 66.0 mg/kg/injection, schedule: Q01DX009 (ip), vehicle: Klucel (hydroxypropylcellulose) (HPC) 102 % of control | dose: 150.0 mg/kg/injection, schedule: Q01DX009 (ip), vehicle: Klucel (hydroxypropylcellulose) (HPC) 122 % of control

CC(=O)O.[Pb]
inactive: dose: 1.56 mg/kg/injection, schedule: Q01DX009 (ip), vehicle: saline with Tween-80 95 % of control | dose: 3.13 mg/kg/injection, schedule: Q01DX009 (ip), vehicle: saline with Tween-80 95 % of control | dose: 6.25 mg/kg/injection, schedule: Q01DX009 (ip), vehicle: saline with Tween-80 95 % of control | [19] 88 % of control

NCCSC(C[N+](=O)[O-])c1ccc2c(c1)OCO2 (stereo not given)
inactive: dose: 50.0 mg/kg/injection, schedule: Q04DX003 (ip), vehicle: saline with Tween-80 102 % of control | [17] 105 % of control | [18] 105 % of control

c1ccc(C2c3ccccc3C(c3ccccc3)(c3ccccc3)c3ccccc32)cc1
inactive: [3] 87 % of control | [4] 101 % of control | [1] 97 % of control | [2] 86 % of control

C1CC[N-]CC1.CC(=N\O)/C(C)=N/O.CC(=N\O)/C(C)=N/O.[CH-]1CCCCC1.[Co+2]
inactive: [1] 97 % of control | [2] 94 % of control

O=C(O)c1cc2oc3ccccc3c2cc1O
inactive: [1] 116 % of control | [2] 110 % of control

O=[N+]([O-])c1cc(Cl)c(Cl)cc1NS(=O)(=O)c1ccccc1
inactive: dose: 150.0 mg/kg/injection, schedule: Q01DX009 (ip), vehicle: saline with Tween-80 100 % of control | dose: 300.0 mg/kg/injection, schedule: Q01DX009 (ip), vehicle: saline with Tween-80 90 % of control

NC(N)=Nc1ccc(C(=O)Oc2ccc([N+](=O)[O-])cc2Cl)cc1
inactive: [19] 97 % of control | [5] 101 % of control | [6] 93 % of control

O=C(N/N=C/c1ccc(O)cc1O)c1cccnc1
inactive: dose: 25.0 mg/kg/injection, schedule: Q01DX009 (ip), vehicle: olive oil, sesame oil, peanut oil 86 % of control

CCN(CC)C(=O)C1CN2CCc3cc(OC)c(OC)cc3C2CC1OC(C)=O (stereo not given)
inactive: dose: 0.39 mg/kg/injection, schedule: Q01DX009 (ip), vehicle: Klucel (hydroxypropylcellulose) (HPC) 95 % of control | [11] 86 % of control | [12] 96 % of control | dose: 3.12 mg/kg/injection, schedule: Q01DX009 (ip), vehicle: Klucel (hydroxypropylcellulose) (HPC) 104 % of control | [20] 100 % of control | [1] 89 % of control | [2] 100 % of control

O=NO.O=N[O-].O=N[O-].[Co+3].[NH2-].[NH2-].[NH2-].[NH2-]
inactive: [20] 88 % of control | [3] 91 % of control | [4] 92 % of control and 101 % of control
